From US11633459B2, “GIP derivatives and uses thereof” (priority 2018, dated 2023)

Columns and labels:
[1] = Chemical stability: HMWP formation by SEC-MS; type: physicochemical; settings: 250 μM, pH 7.4, 37° C., 4 weeks
Method: The aim of this study is to determine the chemical stability of GIP derivative compositions. As a measure of stability of the GIP derivative composition, the formation of high molecular weight peptide formation (% HMWP) as a function of time was analysed by size-exclusion chromatography (SEC-MS). Further, the purity loss of the GIP derivative compositions was measured by LCMS. Samples for chemical stability assays were freshly prepared before each assay. […] The pH of the sample was adjusted to the desired value using appropriate amounts of concentrated NaOH and HCl. […] Formation of covalent oligomers (HMWPs) was analysed and identified by a SEC-MS method. […] The LC system was coupled to both a TUV detector operated at 215 nm, 10 Hz and a high resolution QToF mass spectrometer from Waters (Synapt G2S) operated in positive ion mode and m/z range of 100 to 4000 with normal resolution setting. Lock mass correction against Leu-Enkephalin was done every 31 sec. Spectra were processed in MassLynx version 4.1 and MaxEnt deconvoluted.

[2] = Dynamic Light Scattering Stability Index (DLS-SI); type: physicochemical; settings: concentration only 5 μM instead of 250 μM, pH 7.4, 25° C.
[3] = Sub-chronic in vivo study in DIO mice: IPGTT (intraperitoneal glucose tolerance test); design: species or system DIO male C57BL/6J mice; settings: Tables 6-8, compound 47 2 nmol/kg, GIP derivatives 30 nmol/kg
Source text: (§1) The purpose of this example is to assess the in vivo effect of the GIP derivatives of the present invention alone and in combination with a GLP-1 receptor agonist on food intake, body weight, and glucose tolerance in diet-induced obese (DIO) mice. The GLP-1 receptor agonist used for this example was a semaglutide-like molecule that has the same pharmacological properties as semaglutide, but a slightly different structure. The compound may be synthesised using methods known in the art, e.g. as described by methods of present Example 1 or as described in WO 2006/097537, example 4.
(§2) The animals were treated once daily with the GLP-1 receptor agonist (compound no. 47) and/or a GIP derivative of the present invention exemplified by compound no.'s 5, 25 and 31, to assess weight loss, efficacy and glucose tolerance. Animals and Diet
All animal protocols were approved by an Institutional Animal Care and Use Committee and Ethical Review Committee of Novo Nordisk. […]
On the day of the glucose tolerance test (day 15), animals were fasted for 4 h. […] Tail blood glucose levels were measured and mice were injected (t=0) with an intra-peritoneal (i.p.) glucose load of 2 g/kg (200 mg/ml glucose solution, dose volume 10 ml/kg). Tail blood glucose levels were measured at times 0, 15, 30, 60, 90, 120 minutes following the i.p. glucose load. […]

[4] = Sub-chronic in vivo study in DIO mice: food intake and body weight; design: species or system DIO male C57BL/6J mice; settings: Tables 6-8, compound 47 2 nmol/kg, GIP derivatives 30 nmol/kg
Source text: as §1, §2
All animal protocols were approved by an Institutional Animal Care and Use Committee and Ethical Review Committee of Novo Nordisk. Animals were housed according to Novo Nordisk rodent housing standards, and were given ad libitum access to food and water under controlled lighting (12 h:12 h light/dark cycle; lights off 18:00-06:00), temperature (23±2° C.) and relative humidity (50±20%) conditions. […]
Body weight (BW) and food intake were measured immediately prior to dosing each day. […]

HMWP formation (%/month) [1] [%/month]	Compound	DLS-SI precipitates [2]	effect on glucose tolerance (in words) [3]	effect on food intake and body weight (in words) [4]
0.15	CC[C@H](C)[C@H](NC(=O)[C@H](CO)NC(=O)[C@H](Cc1ccc(O)cc1)NC(=O)[C@H](CC(=O)O)NC(=O)[C@H](CO)NC(=O)[C@@H](NC(=O)[C@H](Cc1ccccc1)NC(=O)[C@@H](NC(=O)CNC(=O)[C@H](CCC(=O)O)NC(=O)[C@H](C)NC(=O)[C@@H](N)Cc1ccc(O)cc1)[C@@H](C)O)[C@@H](C)CC)C(=O)N[C@@H](C)C(=O)N[C@@H](CCSC)C(=O)N[C@@H](CC(=O)O)C(=O)N[C@@H](CCCCN)C(=O)N[C@H](C(=O)N[C@@H](Cc1c[nH]cn1)C(=O)N[C@@H](CCC(N)=O)C(=O)N[C@@H](CCC(N)=O)C(=O)N[C@@H](CC(=O)O)C(=O)N[C@@H](Cc1ccccc1)C(=O)N[C@H](C(=O)N[C@@H](CC(N)=O)C(=O)N[C@@H](Cc1c[nH]c2ccccc12)C(=O)N[C@@H](CC(C)C)C(=O)N[C@@H](CC(C)C)C(=O)N[C@@H](C)C(=O)N[C@@H](CCC(N)=O)C(=O)N[C@@H](CCCCN)C(=O)NCC(=O)O)C(C)C)[C@@H](C)CC [hGIP(1-31)]	formation of large aggregates became visible as precipitation		
	N{1}-acetyl,N{Epsilon-24}-[(4S)-4-carboxy-4-[[(4S)-4-carboxy-4-[[(4S)-4-carboxy-4-[[4-[(19-carboxynonadecanoylamino)methyl]cyclohexanecarbonyl]amino]butanoyl]-amino]butanoyl]amino]butanoyl]-[D-Tyr1,Nle14,Arg18,Aib20,Lys24]-hGIP(1-31) [Compound 25]		improved glucose tolerance	minor effect on food intake
2.0	CC[C@H](C)[C@H](NC(=O)[C@H](CO)NC(=O)[C@H](Cc1ccc(O)cc1)NC(=O)[C@H](CC(=O)O)NC(=O)[C@H](CO)NC(=O)[C@@H](NC(=O)[C@H](Cc1ccccc1)NC(=O)[C@@H](NC(=O)CNC(=O)[C@H](CCC(=O)O)NC(=O)[C@H](C)NC(=O)[C@@H](N)Cc1ccc(O)cc1)[C@@H](C)O)[C@@H](C)CC)C(=O)N[C@@H](C)C(=O)N[C@@H](CCSC)C(=O)N[C@@H](CC(=O)O)C(=O)N[C@@H](CCCCN)C(=O)N[C@H](C(=O)N[C@@H](Cc1c[nH]cn1)C(=O)N[C@@H](CCC(N)=O)C(=O)N[C@@H](CCC(N)=O)C(=O)N[C@@H](CC(=O)O)C(=O)N[C@@H](Cc1ccccc1)C(=O)N[C@H](C(=O)N[C@@H](CC(N)=O)C(=O)N[C@@H](Cc1c[nH]c2ccccc12)C(=O)N[C@@H](CC(C)C)C(=O)N[C@@H](CC(C)C)C(=O)N[C@@H](C)C(=O)N[C@@H](CCC(N)=O)C(=O)N[C@@H](CCCCN)C(=O)NCC(=O)N[C@@H](CCCCN)C(=O)N[C@@H](CCCCN)C(=O)N[C@@H](CC(N)=O)C(=O)N[C@@H](CC(=O)O)C(=O)N[C@@H](Cc1c[nH]c2ccccc12)C(=O)N[C@@H](CCCCN)C(=O)N[C@@H](Cc1c[nH]cn1)C(=O)N[C@@H](CC(N)=O)C(=O)N[C@H](C(=O)N[C@H](C(=O)N[C@@H](CCC(N)=O)C(=O)O)[C@@H](C)O)[C@@H](C)CC)C(C)C)[C@@H](C)CC [hGIP(1-42)]			
	N^6,26-{18-[N-(17-carboxyheptadecanoyl)-D-γ-glutamyl]-10-oxo-3,6,12,15-tetraoxa-9,18-diazaoctadecanoyl}-[8-(2-amino-2-propanoic acid), 34-L-arginine]human glucagon-like peptide 1(7-37) [Compound 47, reference compound]		improvement in glucose tolerance	induced a reduction in food intake that resulted in body weight loss
